Where two headings read alike, the source gives them in different places. Each block holds one compound with its values, some of them ahead of it. d = 2'-deoxy (DNA); r = 2'-OH (RNA)
Key:
[1] = Lyophilization and reconstitution in PBS with membrane filtration; format: physicochemical; details: one milligram by doxorubicin in 0.1 ml of 50 mM PBS, pH=7
Description: The adducts obtained as described in Examples 2 and 3 were used in a lyophilized form. Doxorubicin powder (Sigma Chemical Co., St. Louis, Mo.) and lyophilized “Doxorubicin for injection” were used as control preparations. Each of the four preparations, in the amount of one milligram by doxorubicin, were suspended in 0.1 ml of a 50 mM PBS, pH=7. […] The resultant solutions oligonucleotide-doxorubicin adduct solutions were filtered through […] PTFE membrane filters; doxorubicin was recovered in the filtrates with at least 98% yield (by adsorption at 470 nm).

[2] = tested on: human epithelial cells (kidney, line 293); assay: Carrier and adduct toxicity in cell culture (Trypan Blue staining); format: cell-based; details: control experiment, confluent and growing cultures
Description: Carrier toxicity in cell culture. Unloaded carriers (Example 7) were tested in near confluent culture of human epithelial cells (kidney, line 293, from ATCC #CRL 1573) in DMEM with 5% calf serum. Carriers were added to the cell culture at various concentrations, from 1 mg/ml to 1 mg/ml. Cell survival rate was determined by staining with Trypan Blue after a 16-hour incubation.
Adduct toxicity in cell culture. Doxorubicin-loaded carriers (Example 12) were tested in near confluent and growing cultures of human epithelial cells (kidney, line 293) in DMEM containing 5% calf serum. […] Cell survival rate was determined by staining with Trypan Blue after a 16-hour incubation.

[3] = Doxorubicin biodistribution (14C tissue radioactivity); format: in vivo, mice; details: 0.3 mg/kg via tail vein, 20 hours after injection
Description: (^14C)doxorubicin-loaded carriers (Example 12) and free (^14C)doxorubicin (control) were injected into normal outbred mice (males, 30 g) via tail vein, at 0.3 mg/kg. Biodistribution was studied by measuring tissue radioactivity 20 hours after injection. Tissue samples were disintegrated, solubilized, mixed with a scintillation cocktail and counted on a scintillation counter.

[4] = cited from earlier work
[5] = design: species or system mice; details: mouse, in vivo, iv
Description: An arbitrarily chosen 5-amino modified 18-base phosphodiester oligonucleotide 5° […] (SEQ ID NO: 11), 0.11 mg, was modified with trace amount of ethylenediaminetraacetic anhydride and hybridized with (a) a complementary oligonucleotide, 5′[…] (SEQ ID NO: 12), and (b) analogous complementary oligonucleotide amino modified at both 5′ and 3′ ends and at positions 4, 9 and 15 (from 5′). The hybridized amino modified DSO was incubated with 1 ml of 10 mg/ml solution of N-hydroxycuccinimido-polyethyleneglycol, MW=10 kDa, at pH=8 for 8 hours. The products, PEG-modified double stranded oligonucleotides, were isolated by HPLC. Both PEG-modified and unmodified double stranded oligonucleotides were labeled with 111 in 0.5 M citrate buffer solution, pH=5.6. Labeled preparations were purified by SEC HPLC. Each was divided into 4 equal doses and administered intravenously to outbred mice (n=4 in each group, male, 31±2 g). Blood samples were taken immediately after injection, then at 0.25, 0.5, 1, 2, 4 and 8 hours.

[6] = Carrier biokinetics (3H-labeled carriers, blood); format: in vivo; details: 1 mg/kg via tail vein, mice
Description: Unloaded carriers (Example 8) were labeled with tritium (^3H). Carriers were oxidized with periodate to produce aldehyde groups on the 3′-ribonucleotide base present in the structure, and reacted with [^3H] borohydride to introduce tritium into carrier core structure. Carriers were purified on Sephadex G-25 and injected at 1 mg/kg into normal outbred mice (males, 30 g) via tail vein. Blood samples were collected at different time points and counted. The blood half-lives were ca. 30 min and 10 hours for unprotected and PHF-protected carriers, respectively.

[7] = tested on: antifluorescein rabbit IgG; assay: Steric protection: kinetics of fluorescein quenching by anti-fluorescein IgG; format: binding; details: polymer chains positioned within 2 and 9 bases of fluorescein; 10-fold anti-fluorescein IgG, 20 mM PBS, pH=7.5
Description: To determine the degree of steric protection of the nucleotide core by polymer chains, a series of double-stranded oligonucleotides were synthesized. A model antigen (fluorescein) and a model protective chain (polyethyleneglycol) were positioned on the oligonucleotide at various distances. Then kinetics of fluorescein moiety interactions with fluorescence-quenching antifluorescein rabbit IgG (Molecular Probes, Oreg.) was determined to evaluate the degree of steric protection. The latter was investigated as a function of the distance between the antigen and the protective chain. Four 5′-amino modified oligonucleotides with the same sequence 5′-TTT-CTC-TCT-CTC-TCT-CTC-TCT-3′ (SEQ ID NO: 5) were obtained from a commercial source. […]
The resultant double-stranded oligonucleotides were purified by SEC HPLC and modified, through the 5′-aminogroup of the first strand, with N-hydroxysuccinimide ester of carboxy-polyethyleneglycol (MW=2 kDa and 20 kDa), and with N-hydroxysuccinimide ester of branched “PEG2” polyethyleneglycol (10 kDa). […] Fluorescein—antibody interaction was registered by quenching of the fluorescein fluorescence by the antibody. Fluorescence was registered at 515 nm (excitation at 490 nm). The kinetics of fluorescence quenching depended on the position of the fluorescein moiety relative to the polymer chain.

outbred mice [8] = assay: Carrier toxicity in vivo; details: 100 mg/kg intravenously, observed for 30 days
Text: Carrier toxicity in vivo.

[9] = format: physicochemical
Description: An oligonucleotide with arbitrarily chosen […] sequence, 5′CGTCGACGTCGAATATACGC (SEQ ID NO: 3), and a complementary 5′-amino modified oligonucleotide 5′GC GTA TAT TCG ACG TCG ACG (SEQ ID NO: 4) were purchased from a commercial vendor. To form a double stranded oligonucleotide, the single-stranded oligonucleotides were hybridized and lyophilized as described in Example 1. The resultant double stranded oligonucleotide was stable at ambient (25° C.) and body temperature (37° C.).

outbred mice [10] = assay: Adduct toxicity in vivo; details: observed for 30 days
Description: Adduct toxicity in vivo. […] Bis-intercalator content was one molecule per 6 base pairs of the nucleotide core. […] The adduct and free bis-intercalator were administered intravenously, as described above, into male outbred mice (30±2 g, n=4 per group) at 30 mg/kg by bis-intercalator. In a third group, unloaded carrier was injected at 100 mg/kg within 15 minutes after the administration of 30 mg/kg of bis-doxorubicin.

dissolution on suspending the preparation [1]: formed suspensions
label distribution to liver [3]: 3±0.6 % dose/g
label distribution to lung [3]: 4.6±1.6 % dose/g
label content in skeletal muscle ([3]; mean±standard deviation): 2±0.4 % dose/g
Compound: COc1cccc2c1C(=O)c1c(O)c3c(c(O)c1C2=O)C[C@@](O)(C(=O)CO)C[C@@H]3O[C@H]1C[C@H](N)[C@H](O)[C@H](C)O1 [doxorubicin, Doxorubicin]
cytotoxic effects compared with doxorubicin-loaded carriers [2]: essentially the same cytotoxic effects
solubility at physiological pH [4]: limited solubility

Compound: unmodified double stranded oligonucleotides: labeled SEQ ID NO: 11 hybridized with complementary SEQ ID NO: 12 (chain 1 CGTCGACGTCGAATATACGC; chain 2 GCGTATATTCGACGTCGACG; DNA, phosphodiester; one strand carries an unspecified label)
blood half-life [5]: 0.2 ± 0.083 h

Compound: unprotected carriers: double-stranded carrier from unmodified oligonucleotides SEQ ID NO: 7 and 8 (chain 1 ATGGCGCACGCTGGGAGA; chain 2 TCTCCCAGCGTGCGCCATC; chain 1: DNA, backbone and methylation of C not given here; chain 2: sugars from the 5' end d18 r1, all phosphodiester, methylation of C not given here)
blood half-life [6]: ca. 30 min

Compound: 20 kDa polymer: fluorescein-labeled double-stranded oligonucleotide (SEQ ID NO: 5/6) modified at 5′-amino group with 20 kDa polyethyleneglycol (chain 1 TTTCTCTCTCTCTCTCTCTCT; chain 2 AGAGAGAGAGAGAGAGAGAAAA; 5'-amino linked 20 kDa PEG, fluorescein on an internal base, further chemistry not given here)
decrease of the kinetic constant of fluorescein-antibody interaction [7]: 80%

Compound: PHF-protected carriers: amino modified double-stranded oligonucleotide (SEQ ID NO: 9/8) conjugated with 10 kDa PHF (chain 1 ATGGCGCACGCTGGGAGAC; chain 2 TCTCCCAGCGTGCGCCATC; sugars from the 5' end d18 r1, backbone and methylation of C not given here; amino modifications at positions 1, 2, 12, 19 of first strand, PHF polymer conjugated)
signs of toxicity (outbred mice [8]): None of the animals showed signs of toxicity
survival (outbred mice [8]; n=6): All animals survived
blood half-life [6]: ~10 h

Compound: double stranded oligonucleotide: hybrid of 5′CGTCGACGTCGAATATACGC (SEQ ID NO: 3) and complementary 5′-amino modified SEQ ID NO: 4 (chain 1 CGTCGACGTCGAATATACGC; chain 2 GCGTATATTCGACGTCGACG; complementary strand carries 5'-amino modification, further chemistry not given here)
stability of double stranded oligonucleotide [9]: stable

Compound: C[C@H](CNCCNC[C@@H](C)N1C(=O)c2cccc3cc([N+](=O)[O-])cc(c23)C1=O)N1C(=O)c2cccc3cc([N+](=O)[O-])cc(c23)C1=O [DMP 840]
solubility at physiological pH [4]: limited solubility

Compound: 2 kDa polymer: fluorescein-labeled double-stranded oligonucleotide (SEQ ID NO: 5/6) modified at 5′-amino group with 2 kDa polyethyleneglycol (chain 1 TTTCTCTCTCTCTCTCTCTCT; chain 2 AGAGAGAGAGAGAGAGAGAAAA; fluorescein, 2 kDa PEG, chemistry not fully specified)
decrease of the kinetic constant of fluorescein-antibody interaction [7]: 20%

Compound: COc1cccc2c1C(=O)c1c(O)c3c(c(O)c1C2=O)C[C@@](O)(C(C)=O)C[C@@H]3O[C@H]1C[C@H](NCc2ccc(CN[C@H]3C[C@H](O[C@H]4C[C@](O)(C(C)=O)Cc5c(O)c6c(c(O)c54)C(=O)c4c(OC)cccc4C6=O)O[C@@H](C)[C@H]3O)cc2)[C@H](O)[C@H](C)O1 [WP-631]
survival (outbred mice [10]; 30 mg/kg bis-doxorubicin, then unloaded carrier 100 mg/kg within 15 minutes): all animals survived
survival (outbred mice [10]; 30 mg/kg by bis-intercalator intravenously, n=4 per group): only one animal survived
solubility at physiological pH [4]: limited solubility

Source: patent publication US8247383B2, “Drug-carrier complexes and methods of use thereof” (The General Hospital Corporation, priority 1999, dated 2012)
